What all share (type): functional
For assay [1], the system named is Fusarium oxysporum. Kind of assay: Antifungal activity against Fusarium oxysporum f. sp. lupini at 1 ug/ml after 192 hrs relative to control. The conditions noted are these: read-out: GI.
Assay [2] concerns Fusarium oxysporum. The assay can be described thus: Antifungal activity against Fusarium oxysporum f. sp. lupini at 20 ug/ml after 192 hrs relative to control. As to conditions: read-out: GI.
Assay [3] concerns Fusarium oxysporum. The assay can be described thus: Antifungal activity against Fusarium oxysporum f. sp. lupini at 20 ug/ml after 192 hrs.
Assay [4] deals with Fusarium oxysporum. The assay can be described thus: Antifungal activity against Fusarium oxysporum f. sp. lupini at 1 ug/ml after 144 hrs.
In assay [5] the test system is Fusarium oxysporum. The assay can be described thus: Antifungal activity against Fusarium oxysporum f. sp. lupini at 1 ug/ml after 96 hrs.
Assay [6] has as its system Fusarium oxysporum. The assay can be described thus: Antifungal activity against Fusarium oxysporum f. sp. lupini at 1 ug/ml after 192 hrs.
For assay [7], the system named is Fusarium oxysporum. The assay can be described thus: Antifungal activity against Fusarium oxysporum f. sp. lupini at 20 ug/ml after 48 hrs.
In assay [8] the test system is Fusarium oxysporum. The assay can be described thus: Antifungal activity against Fusarium oxysporum f. sp. lupini at 1 ug/ml after 48 hrs.
The test system of assay [9] is Fusarium oxysporum. Kind of assay: Antifungal activity against Fusarium oxysporum f. sp. lupini at 20 ug/ml after 96 hrs.
Assay [10] deals with Fusarium oxysporum. Kind of assay: Antifungal activity against Fusarium oxysporum f. sp. lupini at 20 ug/ml after 144 hrs.
Assay [11] relates to Fusarium oxysporum. Kind of assay: Antifungal activity against Fusarium oxysporum f. sp. lupini at 0.5 ug/ml after 192 hrs relative to control. As to conditions: read-out: GI.
Assay [12] relates to Fusarium oxysporum. The assay can be described thus: Antifungal activity against Fusarium oxysporum f. sp. lupini at 0.5 ug/ml after 96 hrs.
Assay [13] has as its system Fusarium oxysporum. Kind of assay: Antifungal activity against Fusarium oxysporum f. sp. lupini at 0.5 ug/ml after 48 hrs.
The subject of assay [14] is Fusarium oxysporum. The assay can be described thus: Antifungal activity against Fusarium oxysporum f. sp. lupini at 0.1 ug/ml after 96 hrs.
In assay [15] the test system is Fusarium oxysporum. Kind of assay: Antifungal activity against Fusarium oxysporum f. sp. lupini at 0.1 ug/ml after 48 hrs.
Assay [16] has as its system Fusarium oxysporum. Kind of assay: Antifungal activity against Fusarium oxysporum f. sp. lupini at 0.1 ug/ml after 192 hrs relative to control. As to conditions: read-out: GI.
In assay [17] the test system is Fusarium oxysporum. The assay can be described thus: Antifungal activity against Fusarium oxysporum f. sp. lupini at 0.1 ug/ml after 192 hrs.
For assay [18], the system named is Fusarium oxysporum. Kind of assay: Antifungal activity against Fusarium oxysporum f. sp. lupini at 0.1 ug/ml after 144 hrs.
Assay [19] deals with Fusarium oxysporum. The assay can be described thus: Antifungal activity against Fusarium oxysporum f. sp. lupini at 0.5 ug/ml after 144 hrs.
In assay [20] the test system is Fusarium oxysporum. Kind of assay: Antifungal activity against Fusarium oxysporum f. sp. lupini at 0.5 ug/ml after 192 hrs.

On to `COCCOC(C/N=C/c1c(O)c(O)c(C(C)C)c2cc(C)c(-c3c(C)cc4c(c3O)C(/C=N/CC(OCCOC)OCCOC)C(=O)C(O)=C4C(C)C)c(O)c12)OCCOC` (stereo not given), for which the inhibition of growth at 1 µg/mL in the assay with Fusarium oxysporum [1] is 1%. The inhibition of growth at 20 µg/mL in the assay with Fusarium oxysporum [2] turned out to be 1.5%. For the same molecule, the “Radial growth inhibition of fungi (Ā) (mm)” value (from here on “Radial growth inhibition”) with Fusarium oxysporum [3] is given as 58.38 mm; with Fusarium oxysporum [4] it was 45.63 mm; with Fusarium oxysporum [5] it was 32.13 mm; with Fusarium oxysporum [6], 58.63 mm; in the assay with Fusarium oxysporum [7] it was 19.63 mm; with Fusarium oxysporum [8], 19.75 mm. Moreover, the “Radial growth inhibition” value came to 31.63 mm in the assay with Fusarium oxysporum [9] and 45.5 mm in the assay with Fusarium oxysporum [10].
For `CCOC(=O)N1CCC(N/C=C2\C(=O)C(O)=C(C(C)C)c3cc(C)c(-c4c(C)cc5c(c4O)/C(=C/NC4CCN(C(=O)OCC)CC4)C(=O)C(O)=C5C(C)C)c(O)c32)CC1`, in the assay on Fusarium oxysporum [1], the inhibition of growth at 1 µg/mL turned out to be 0%. Further, the inhibition of growth at 20 µg/mL with Fusarium oxysporum [2] amounted to 0.4%. Also, the “Radial growth inhibition” value in the assay with Fusarium oxysporum [3] is 59 mm; with Fusarium oxysporum [4] it was 46.25 mm; with Fusarium oxysporum [5], 32.25 mm; in the assay with Fusarium oxysporum [6], 59.25 mm; in the assay on Fusarium oxysporum [7], 19.63 mm; in the assay on Fusarium oxysporum [8], 19.88 mm. The “Radial growth inhibition” value in the assay on Fusarium oxysporum [9] is 32.13 mm; in the assay with Fusarium oxysporum [10], 46 mm.
Turning to `Cc1cc2c(c(O)c1-c1c(C)cc3c(C(C)C)c(O)c(O)c(/C=N/N4CCN(C)CC4)c3c1O)C(/C=N/N1CCN(C)CC1)C(=O)C(O)=C2C(C)C` (stereo not given), the inhibition of growth at 1 µg/mL with Fusarium oxysporum [1] is 0.8%. The inhibition of growth at 20 µg/mL in the assay with Fusarium oxysporum [2] came to 1.3%. The “Radial growth inhibition” value in the assay with Fusarium oxysporum [3] was 58.5 mm; with Fusarium oxysporum [4], 45.75 mm; with Fusarium oxysporum [5], 31.88 mm; in the assay on Fusarium oxysporum [6] it was 58.75 mm; in the assay on Fusarium oxysporum [7], 19.25 mm; in the assay on Fusarium oxysporum [8] it was 19.38 mm. Also, the entries for the “Radial growth inhibition” value in the assay with Fusarium oxysporum [9] and with Fusarium oxysporum [10] were 31.63 mm and 45.75 mm, respectively.
Take `Cc1cc2c(c(O)c1-c1c(C)cc3c(C(C)C)c(O)c(O)c(/C=N/N4CCN(CCO)CC4)c3c1O)C(/C=N/N1CCN(CCO)CC1)C(=O)C(O)=C2C(C)C` (stereo not given): the inhibition of growth at 1 µg/mL in the assay with Fusarium oxysporum [1] was determined as 1.3%. In addition, in the assay on Fusarium oxysporum [2], the inhibition of growth at 20 µg/mL was found to be 1.7%. Besides, the “Radial growth inhibition” value was found to be 58.25 mm in the assay on Fusarium oxysporum [3]; 45.5 mm in the assay with Fusarium oxysporum [4]; 32 mm in the assay on Fusarium oxysporum [5]; 58.5 mm with Fusarium oxysporum [6]; 19.5 mm in the assay on Fusarium oxysporum [7]; 19.63 mm with Fusarium oxysporum [8]. Also, the “Radial growth inhibition” value in the assay with Fusarium oxysporum [9] turned out to be 31.5 mm; in the assay on Fusarium oxysporum [10], 45.38 mm.
For the molecule `Cc1cc2c(c(O)c1-c1c(C)cc3c(c1O)/C(=C/NCCCN1CCCC1=O)C(=O)C(O)=C3C(C)C)/C(=C/NCCCN1CCCC1=O)C(=O)C(O)=C2C(C)C`, the inhibition of growth at 1 µg/mL with Fusarium oxysporum [1] worked out at 0%. Further, the inhibition of growth at 20 µg/mL in the assay with Fusarium oxysporum [2] came to 0.6%. The “Radial growth inhibition” value was 58.88 mm in the assay with Fusarium oxysporum [3]; 46.13 mm with Fusarium oxysporum [4]; 32.13 mm with Fusarium oxysporum [5]; 59.25 mm with Fusarium oxysporum [6]; 19.5 mm in the assay on Fusarium oxysporum [7]; 19.75 mm with Fusarium oxysporum [8]. The “Radial growth inhibition” value is 31.88 mm in the assay on Fusarium oxysporum [9] and 45.88 mm with Fusarium oxysporum [10].
In the case of `COCCOCCOCCN/C=C1\C(=O)C(O)=C(C(C)C)c2cc(C)c(-c3c(C)cc4c(c3O)/C(=C/NCCOCCOCCOC)C(=O)C(O)=C4C(C)C)c(O)c21`, the inhibition of growth at 0.5 µg/mL with Fusarium oxysporum [11] came out at 18.1%. Further, in the assay with Fusarium oxysporum [1], the inhibition of growth at 1 µg/mL came to 22.8%. For the same molecule, the inhibition of growth at 20 µg/mL in the assay on Fusarium oxysporum [2] is 25.7%. Also, the “Radial growth inhibition” value in the assay with Fusarium oxysporum [12] was determined as 25.75 mm; in the assay on Fusarium oxysporum [3], 44 mm; with Fusarium oxysporum [4], 35.25 mm; with Fusarium oxysporum [13] it was 16.38 mm; in the assay with Fusarium oxysporum [5] it was 25 mm; with Fusarium oxysporum [6], 45.75 mm. Also, the “Radial growth inhibition” value in the assay with Fusarium oxysporum [14] is reported as 27 mm; in the assay on Fusarium oxysporum [15] it was 16.75 mm; in the assay on Fusarium oxysporum [7], 14.13 mm; in the assay with Fusarium oxysporum [8] it was 14.88 mm; in the assay with Fusarium oxysporum [17], 51.75 mm; in the assay with Fusarium oxysporum [18] it was 39.25 mm. The “Radial growth inhibition” value in the assay on Fusarium oxysporum [19] is 36.88 mm; with Fusarium oxysporum [20], 48.5 mm; in the assay on Fusarium oxysporum [9], 24.13 mm; in the assay on Fusarium oxysporum [10], 34.13 mm. Further, the inhibition of growth at 0.1 µg/mL with Fusarium oxysporum [16] amounted to 12.7%.
In the case of `Cc1cc2c(c(O)c1-c1c(C)cc3c(c1O)/C(=C/NCCCN1CCOCC1)C(=O)C(O)=C3C(C)C)/C(=C/NCCCN1CCOCC1)C(=O)C(O)=C2C(C)C`, the inhibition of growth at 1 µg/mL in the assay with Fusarium oxysporum [1] came out at 0.4%. The inhibition of growth at 20 µg/mL in the assay on Fusarium oxysporum [2] worked out at 1%. The “Radial growth inhibition” value worked out at 58.63 mm in the assay with Fusarium oxysporum [3]; 45.88 mm with Fusarium oxysporum [4]; 31.88 mm in the assay with Fusarium oxysporum [5]; 59 mm in the assay on Fusarium oxysporum [6]; 19.25 mm in the assay on Fusarium oxysporum [7]; 19.5 mm in the assay on Fusarium oxysporum [8]. Moreover, the “Radial growth inhibition” value is given as 31.63 mm in the assay with Fusarium oxysporum [9] and 45.63 mm in the assay with Fusarium oxysporum [10].
`COCC/N=C/c1c(O)c(O)c(C(C)C)c2cc(C)c(-c3c(C)cc4c(c3O)C(/C=N/CCOC)C(=O)C(O)=C4C(C)C)c(O)c12` (stereo not given): the inhibition of growth at 1 µg/mL in the assay on Fusarium oxysporum [1] turned out to be 0.4%. Moreover, the inhibition of growth at 20 µg/mL with Fusarium oxysporum [2] was 0.6%. In addition, the “Radial growth inhibition” value is recorded as 58.88 mm in the assay on Fusarium oxysporum [3]; 46.13 mm in the assay on Fusarium oxysporum [4]; 32.13 mm with Fusarium oxysporum [5]; 59 mm in the assay on Fusarium oxysporum [6]; 19.5 mm with Fusarium oxysporum [7]; 19.75 mm in the assay with Fusarium oxysporum [8]. Moreover, the “Radial growth inhibition” value in the assay on Fusarium oxysporum [9] was determined as 31.88 mm; in the assay on Fusarium oxysporum [10], 45.88 mm.
As for `CCCCOCCOCCN/C=C1\C(=O)C(O)=C(C(C)C)c2cc(C)c(-c3c(C)cc4c(c3O)/C(=C/NCCOCCOCCCC)C(=O)C(O)=C4C(C)C)c(O)c21`, the inhibition of growth at 0.5 µg/mL with Fusarium oxysporum [11] was found to be 23.8%. Also, the inhibition of growth at 1 µg/mL in the assay on Fusarium oxysporum [1] worked out at 25.7%. For the same molecule, the inhibition of growth at 20 µg/mL in the assay on Fusarium oxysporum [2] is 26.4%. The “Radial growth inhibition” value in the assay on Fusarium oxysporum [12] is on record as 24.63 mm; in the assay with Fusarium oxysporum [3] it was 43.63 mm; in the assay on Fusarium oxysporum [4], 33.88 mm; with Fusarium oxysporum [13] it was 15.13 mm; in the assay on Fusarium oxysporum [5] it was 23.5 mm; with Fusarium oxysporum [6], 44 mm. The “Radial growth inhibition” value in the assay with Fusarium oxysporum [14] is 25.63 mm; with Fusarium oxysporum [15] it was 16.38 mm; in the assay with Fusarium oxysporum [7] it was 13.5 mm; in the assay with Fusarium oxysporum [8], 14.25 mm; in the assay on Fusarium oxysporum [17] it was 49.25 mm; with Fusarium oxysporum [18], 36.75 mm. In addition, the “Radial growth inhibition” value with Fusarium oxysporum [19] was determined as 34.75 mm; in the assay with Fusarium oxysporum [20], 45.13 mm; in the assay on Fusarium oxysporum [9], 23.63 mm; in the assay with Fusarium oxysporum [10], 33.25 mm. Also, the inhibition of growth at 0.1 µg/mL in the assay with Fusarium oxysporum [16] stood at 16.9%.
As to `Cc1cc2c(c(O)c1-c1c(C)cc3c(c1O)/C(=C/NCCc1cccs1)C(=O)C(O)=C3C(C)C)/C(=C/NCCc1cccs1)C(=O)C(O)=C2C(C)C`, the inhibition of growth at 1 µg/mL with Fusarium oxysporum [1] worked out at 0.2%. Further, in the assay on Fusarium oxysporum [2], the inhibition of growth at 20 µg/mL was 0.8%. The “Radial growth inhibition” value in the assay with Fusarium oxysporum [3] stood at 58.75 mm; in the assay with Fusarium oxysporum [4] it was 46 mm; with Fusarium oxysporum [5], 32 mm; with Fusarium oxysporum [6], 59.13 mm; with Fusarium oxysporum [7], 19.38 mm; in the assay with Fusarium oxysporum [8], 19.63 mm. The “Radial growth inhibition” value in the assay on Fusarium oxysporum [9] was determined as 31.75 mm; in the assay on Fusarium oxysporum [10], 45.75 mm.
